Test results as given in patent US10227347B2, “Purinyl-N-hydroxyl pyrimidine formamide derivative, preparation methods and uses thereof” (Guizhou Bailing Group Pharmaceutical CO., LTD., priority 2015, dated 2019).
Like-named read-outs stand apart in the source and are kept apart here.

Legend:
PI3Kα = target: T1, PI3Kα (Homo sapiens, UniProt P42336); experiment: PI3Kα activity inhibition (Kinase-Glo); format: biochemical; settings: read-out: PI3Kα IC50
T1 construct: purchased Invitrogen PV4788
Procedure, shortened: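 Kinase-Glo luminescence read-out of remaining ATP after PI3K reaction with PIP2 and ATP substrates in 50 mM HEPES pH 7.5, 3 mM MgCl2, 1 mM EGTA, 100 mM NaCl, 0.03% CHAPS, 2 mM DTT. Incubated at ambient temperature, 1 h for PI3Kα, 2 h for PI3Kδ. IC50 from four-parameter fit of % inhibition versus concentration.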

[1] = system: Ramos cells (B-cell lymphoma); experiment: Proliferation inhibition, Ramos (cck-8); format: cell-based; settings: Homo sapiens, 96 h incubation
Source text: (§1) Calculating the value of IC50 as per the formula: Y=background data+(top data−background data)/(1+10^((Log IC50−X)*rate of curve)). Where, Y refers to the inhibition ratio (%) and X refers to the compound concentration.

PI3Kδ = target: T2, PI3Kδ (Homo sapiens, UniProt O00329); experiment: PI3Kδ activity inhibition (Kinase-Glo); format: biochemical; settings: Table 4, graded
T2 construct: purchased Millipore 14-604-K
T2 sequence (O00329 whole entry): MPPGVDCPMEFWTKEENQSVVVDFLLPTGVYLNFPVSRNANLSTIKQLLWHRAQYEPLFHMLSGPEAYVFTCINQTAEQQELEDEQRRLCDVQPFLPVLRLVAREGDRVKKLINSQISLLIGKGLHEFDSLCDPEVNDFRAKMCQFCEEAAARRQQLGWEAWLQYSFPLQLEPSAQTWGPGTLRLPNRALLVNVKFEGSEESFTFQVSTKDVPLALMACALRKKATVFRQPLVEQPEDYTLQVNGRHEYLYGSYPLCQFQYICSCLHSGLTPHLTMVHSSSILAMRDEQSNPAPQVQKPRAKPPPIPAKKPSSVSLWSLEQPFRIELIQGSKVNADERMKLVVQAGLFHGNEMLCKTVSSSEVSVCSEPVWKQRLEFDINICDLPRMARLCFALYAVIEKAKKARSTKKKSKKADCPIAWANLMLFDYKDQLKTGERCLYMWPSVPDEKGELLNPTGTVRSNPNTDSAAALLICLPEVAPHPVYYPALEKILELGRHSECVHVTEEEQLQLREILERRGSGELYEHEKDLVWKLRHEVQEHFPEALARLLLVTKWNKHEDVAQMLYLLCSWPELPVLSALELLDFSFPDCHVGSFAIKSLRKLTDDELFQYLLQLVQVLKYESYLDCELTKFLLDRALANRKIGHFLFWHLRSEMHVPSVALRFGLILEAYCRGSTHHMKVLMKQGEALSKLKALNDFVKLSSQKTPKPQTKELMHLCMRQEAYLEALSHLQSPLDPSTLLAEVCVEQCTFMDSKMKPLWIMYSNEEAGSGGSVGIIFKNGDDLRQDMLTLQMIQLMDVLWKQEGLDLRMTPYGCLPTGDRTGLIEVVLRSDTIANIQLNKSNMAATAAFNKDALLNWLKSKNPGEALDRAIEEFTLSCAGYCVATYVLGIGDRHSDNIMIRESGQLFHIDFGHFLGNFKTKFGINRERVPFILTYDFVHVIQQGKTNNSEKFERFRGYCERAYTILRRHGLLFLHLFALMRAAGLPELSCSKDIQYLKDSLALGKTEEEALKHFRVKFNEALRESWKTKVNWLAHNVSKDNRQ
T2 sequence (P27986 whole entry partner): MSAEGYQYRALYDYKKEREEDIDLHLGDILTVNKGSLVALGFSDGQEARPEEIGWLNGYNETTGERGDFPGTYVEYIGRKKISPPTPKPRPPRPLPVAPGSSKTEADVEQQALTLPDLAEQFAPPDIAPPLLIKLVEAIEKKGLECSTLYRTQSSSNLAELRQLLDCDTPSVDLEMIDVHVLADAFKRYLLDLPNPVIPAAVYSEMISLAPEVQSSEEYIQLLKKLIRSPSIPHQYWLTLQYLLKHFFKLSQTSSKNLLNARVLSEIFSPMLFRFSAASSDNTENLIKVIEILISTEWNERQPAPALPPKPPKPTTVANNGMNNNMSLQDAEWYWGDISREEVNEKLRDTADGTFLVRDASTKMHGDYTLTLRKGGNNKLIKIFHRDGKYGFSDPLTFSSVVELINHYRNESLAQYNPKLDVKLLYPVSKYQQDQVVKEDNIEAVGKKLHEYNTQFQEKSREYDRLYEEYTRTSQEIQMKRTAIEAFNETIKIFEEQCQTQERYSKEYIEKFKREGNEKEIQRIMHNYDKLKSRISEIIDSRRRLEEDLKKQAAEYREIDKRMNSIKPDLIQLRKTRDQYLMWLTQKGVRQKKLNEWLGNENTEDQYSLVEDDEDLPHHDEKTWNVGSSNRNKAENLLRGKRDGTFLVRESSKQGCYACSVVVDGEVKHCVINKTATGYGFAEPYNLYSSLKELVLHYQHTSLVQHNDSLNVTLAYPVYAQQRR
Description: Detecting the inhibition capability of the compound to PI3Kα and PI3Kδ activities with Kinase-Glo (purchased from Promege Company; Catalog No.: V3771). […] The reaction system also comprises substrates as PIP2 (4, 5-diphosphoinositide, purchased from Life Technologies Company) and ATP (triphosadenine, purchased from Sigma Company). The reaction buffer system comprises 50 mM HEPES (4-hydroxyethylpiperazine ethane sulfonic acid), 3 mM MgCl2, 1 mM EGTA (ethylene glycol bis(2-amino ethylether)quadrol), 100 mM NaCl, 0.03% CHAPS (3-[3-(cholamidopropyl)dimethylamino]-1-propanesulfonic acid), 2 mM DTT (dithiothreitol). The pH value of the reaction buffer is 7.5. […] Mixing the system evenly for incubation under ambient temperature (for 1 h in PI3Kα test and for 2 h in PI3Kδ test). After incubation, adding 10 μL Kinase-Glo which has been preheated to ambient temperature into each reaction well to terminate the reaction; shaking it in dark place for 15 min after it is mixed evenly, then measuring the fluorescence intensity with a microplate reader and analyzing the result data with the software GraphPad Prism.
(§2) Calculating the value of IC50 as per the formula: Y=background data+(top data−background data)/(1+10^((Log IC50−X)*rate of curve))
(§3) Where, Y refers to the inhibition ratio (%) and X refers to the compound concentration.

[2] = system: SUDHL-4 cells (B-cell lymphoma); experiment: Proliferation inhibition, SUDHL-4 (cck-8); format: cell-based; settings: Homo sapiens, SU-DHL-4; 96 h incubation
Source text: as §1

[3] = system: OCI-LY1 cells (B-cell lymphoma); experiment: Proliferation inhibition, OCI-LY1 (cck-8); format: cell-based; settings: Homo sapiens, 96 h incubation
Source text: as §1

[4] = system: MV4-11 cells (acute myeloid leukemia); experiment: Cell proliferation inhibition, MV4-11 (cck-8); format: cell-based; settings: Homo sapiens, 96 h incubation, read-out: Proliferation IC50, Acute myeloid leukemia MV4-11
Procedure, shortened: (§4)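 Cells seeded at 2000-3000/well; adherent lines dosed after attachment, then 96 h incubation with compound. Viability read by MTT for solid-tumour lines (HCT116, A2780s) and CCK-8 for MV4-11; IC50 from four-parameter logistic fit of inhibition ratio versus concentration.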

[5] = system: hct116 cells (colon cancer); experiment: Cell proliferation inhibition, hct116 (MTT); format: cell-based; settings: Homo sapiens, HCT-116; 96 h incubation; read-out: Proliferation IC50, Colon cancer hct116
Procedure, shortened: as §4

PI3Kγ [6] = target: T3, PI3Kγ (Homo sapiens, UniProt P48736); experiment: PI3Kγ activity inhibition (ADP-Glo); format: biochemical; settings: Table 4, graded
T3 construct: purchased Invitrogen PR8641C
T3 sequence (P48736 whole entry): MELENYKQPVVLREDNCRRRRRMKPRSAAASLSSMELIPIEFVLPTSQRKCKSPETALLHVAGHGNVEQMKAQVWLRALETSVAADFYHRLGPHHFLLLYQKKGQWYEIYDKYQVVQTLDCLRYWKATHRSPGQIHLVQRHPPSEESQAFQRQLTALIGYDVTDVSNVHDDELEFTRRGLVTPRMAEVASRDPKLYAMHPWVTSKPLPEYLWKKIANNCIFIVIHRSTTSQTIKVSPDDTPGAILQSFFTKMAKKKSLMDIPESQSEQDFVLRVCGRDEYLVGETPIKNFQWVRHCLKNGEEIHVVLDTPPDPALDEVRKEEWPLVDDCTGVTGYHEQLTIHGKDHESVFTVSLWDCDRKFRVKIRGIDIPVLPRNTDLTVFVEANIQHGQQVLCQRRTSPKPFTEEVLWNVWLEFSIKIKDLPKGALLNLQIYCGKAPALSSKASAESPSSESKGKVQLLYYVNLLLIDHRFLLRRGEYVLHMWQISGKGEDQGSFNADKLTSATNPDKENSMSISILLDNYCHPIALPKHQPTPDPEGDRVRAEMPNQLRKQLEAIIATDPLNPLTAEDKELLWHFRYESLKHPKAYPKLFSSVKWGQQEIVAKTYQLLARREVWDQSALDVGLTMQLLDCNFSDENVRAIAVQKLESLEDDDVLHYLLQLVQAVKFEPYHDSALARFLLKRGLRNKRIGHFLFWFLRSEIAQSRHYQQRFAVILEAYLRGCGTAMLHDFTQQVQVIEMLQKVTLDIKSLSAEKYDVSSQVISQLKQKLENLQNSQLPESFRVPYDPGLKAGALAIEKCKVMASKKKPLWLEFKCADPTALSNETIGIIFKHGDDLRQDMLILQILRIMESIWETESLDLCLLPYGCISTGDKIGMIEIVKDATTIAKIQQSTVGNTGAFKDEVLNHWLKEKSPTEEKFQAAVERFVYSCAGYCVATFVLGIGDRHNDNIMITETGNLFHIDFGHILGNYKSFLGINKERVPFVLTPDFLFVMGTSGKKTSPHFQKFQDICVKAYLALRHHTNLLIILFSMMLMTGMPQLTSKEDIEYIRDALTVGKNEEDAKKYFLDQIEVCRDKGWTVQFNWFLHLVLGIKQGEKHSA
Description: (§5) Detecting the inhibition capability of the compound to PI3Kβ and PI3Kγ activities with ADP-Glo (purchased from Promege Company; Catalog No.: v9102/3). […] The reaction system also comprises substrates as PIP2 and ATP. The reaction buffer system comprises 50 mM HEPES, 3 mM MgCl2, 1 mM EGTA, 100 mM NaCl, 0.03% CHAPS and 2 mM DTT. The pH value of the reaction buffer is 7.5. […] Mixing the system evenly for incubation under ambient temperature for 1 h; getting a new 384 well plate and transferring 5 μL reaction liquid from the each well of original 384 well plate to the corresponding wells of the new 384 well plate; adding 5 μL ADP-Glo which has been preheated to ambient temperature into each new reaction well to terminate the reaction; oscillating it slowly in dark place for 40 min's incubation after it is mixed evenly; adding 10 μL testing liquid in each reaction well, oscillating it for 1 min to mix evenly and incubating it for 1 h, then measuring the fluorescence intensity with a microplate reader and analyzing the result data with the software GraphPad Prism.
as §2, §3

PI3Kβ = target: T4, PI3Kβ (Homo sapiens, UniProt P42338); experiment: PI3Kβ activity inhibition (ADP-Glo); format: biochemical; settings: Table 4, graded
T4 construct: purchased Millipore 14-603-K
T4 sequence (P42338 whole entry, species assumed): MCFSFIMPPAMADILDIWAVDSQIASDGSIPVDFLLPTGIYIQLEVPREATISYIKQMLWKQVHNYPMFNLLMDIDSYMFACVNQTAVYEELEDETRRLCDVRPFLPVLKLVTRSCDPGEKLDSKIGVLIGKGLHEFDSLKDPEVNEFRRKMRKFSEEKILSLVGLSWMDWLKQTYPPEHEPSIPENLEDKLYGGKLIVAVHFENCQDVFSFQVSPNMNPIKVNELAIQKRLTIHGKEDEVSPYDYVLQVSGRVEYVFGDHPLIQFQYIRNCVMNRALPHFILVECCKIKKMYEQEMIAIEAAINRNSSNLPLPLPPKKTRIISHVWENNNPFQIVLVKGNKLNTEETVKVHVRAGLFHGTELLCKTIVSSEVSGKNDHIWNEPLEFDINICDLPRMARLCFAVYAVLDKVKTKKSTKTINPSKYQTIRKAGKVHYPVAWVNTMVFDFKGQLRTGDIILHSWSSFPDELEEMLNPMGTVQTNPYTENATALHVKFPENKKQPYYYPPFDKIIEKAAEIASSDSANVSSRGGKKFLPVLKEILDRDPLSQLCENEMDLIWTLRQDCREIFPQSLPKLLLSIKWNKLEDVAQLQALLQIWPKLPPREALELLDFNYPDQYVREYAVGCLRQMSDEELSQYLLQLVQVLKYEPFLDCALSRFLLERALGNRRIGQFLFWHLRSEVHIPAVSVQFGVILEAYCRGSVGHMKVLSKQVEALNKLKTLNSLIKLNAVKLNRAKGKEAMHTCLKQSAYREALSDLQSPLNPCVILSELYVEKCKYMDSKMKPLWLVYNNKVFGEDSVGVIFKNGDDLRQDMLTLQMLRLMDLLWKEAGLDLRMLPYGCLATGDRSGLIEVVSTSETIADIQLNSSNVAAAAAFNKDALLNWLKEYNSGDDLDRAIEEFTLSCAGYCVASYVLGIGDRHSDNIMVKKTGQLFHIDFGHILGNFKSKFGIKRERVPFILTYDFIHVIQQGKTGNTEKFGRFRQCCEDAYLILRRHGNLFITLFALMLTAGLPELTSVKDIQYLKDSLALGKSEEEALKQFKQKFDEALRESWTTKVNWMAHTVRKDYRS
T4 sequence (P27986 whole entry partner, species assumed): as the sequence (P27986 whole entry partner) above
Description: as §5, §2, §3

[7] = system: HBL-1 cells (B-cell lymphoma); experiment: Proliferation inhibition, HBL-1 (cck-8); format: cell-based; settings: Homo sapiens, HBL1; 96 h incubation
Source text: as §1

[8] = system: MV4-11 subcutaneous tumor; settings: 10 mg/kg i.v., once per two days, 22 days
Source text: During drug administration, measuring the weight and gross tumor volume of the mice per 2 days and keeping a record. The calculation formula is as V=π/6×A^2×B, where, where, V=gross tumor volume (mm^3), A=tumor width (mm) and B=tumor length (mm). Observing and keeping a record for the survival condition of the tested animals. After drug discontinuance, killing the mice through cervical dislocation and peeling off their tumors as per the operation specification of animal experiment. Evaluating the inhibition capability of the compounds to tumor activities by calculating the tumor inhibitory rate with the formula as: tumor inhibitory rate=(1−tumor weight of treatment group/tumor weight of control group)×100%. Analyzing and comparing the difference between each treatment group and control group with the method of t-test. The grading of significance level of difference is: ***, P<0.001; **, P<0.01; *, P<0.05; no statistical significance (ns), P>0.05.

[9] = system: acetylated Ac-α-tubulin in A2780s cells; experiment: Induction of α-tubulin acetylation in A2780s cells (cytoblot); format: cell-based; settings: Homo sapiens, 6 h treatment, read-out: Ac-Tub EC50
Description: (§6) Specific operation: After the treatment, washing each well once with 50-100 μl of cold TBS buffer [with the composition as 20 mM Tris (trismetyl aminomethane), pH7.5] and fixing it with 100 μL of 4% pre-cooled paraformaldehyde at 4° C. for 1 h; after paraformaldehyde is washed off, adding 50 μL of pre-cooled methyl alcohol in each well and evenly spreading at 4° C. for 5 min; after methyl alcohol is washed off, washing it once with the TBS buffer containing 3% skim milk powder and adding 50 μL of antibody fluid, oscillating it slightly at 4° C. and incubating overnight. For determination of Ac—H3, the antibody fluid is prepared by diluting Ac—H3 antibody and horseradish peroxide coupled secondary antibody to a same system with the TBS buffer containing 3% skim milk powder (Ac—H3 antibody is purchased from Santa Cruz Company and diluted at a ratio of 1:100; horseradish peroxide coupled secondary antibody is purchased from Jackson Company and diluted at a ratio of 1:2000); for determination of acetylated Ac-α-tubulin, the antibody fluid is prepared by diluting Ac-α-tubulin antibody and horseradish peroxide coupled secondary antibody to a same system with the TBS buffer containing 3% skim milk powder (Ac-α-tubulin antibody is purchased from Santa Cruz Company and diluted at a ratio of 1:100; horseradish peroxide coupled secondary antibody is purchased from Jackson Company and diluted at a ratio of 1:2000).
(§7) Calculating the value of IC50 as per the formula: Y=background data+(top data−background data)/(1+10^((Log EC50−X)*rate of curve)) Where, Y refers to the activating rate (%) and X refers to the compound concentration.

[10] = system: MM1S cells (multiple myeloma); experiment: Proliferation inhibition, MM1S (cck-8); format: cell-based; settings: Homo sapiens, MM1.S; 96 h incubation
Source text: as §1

[11] = system: RPMI-8226 cells (multiple myeloma); experiment: Proliferation inhibition, RPMI-8226 (cck-8); format: cell-based; settings: Homo sapiens, 96 h incubation
Source text: as §1

[12] = system: acetylated histone H3 (Ac-H3) in A2780s cells; experiment: Induction of histone H3 acetylation in A2780s cells (cytoblot); format: cell-based; settings: Homo sapiens, 6 h treatment
Description: as §6, §7

[13] = system: A2780s cells (ovarian cancer); experiment: Cell proliferation inhibition, A2780s (MTT); format: cell-based; settings: Homo sapiens, 96 h incubation, read-out: Proliferation IC50, Ovarian cancer A2780s
Procedure, shortened: as §4

[14] = system: U266 cells (multiple myeloma); experiment: Proliferation inhibition, U266 (cck-8); format: cell-based; settings: Homo sapiens, U-266; 96 h incubation
Source text: as §1

PI3Kγ [15] = settings: read-out: inhibition value to activity of PI3Kγ; literature [1]; cited from earlier work

T1 sequence (P42336 whole entry, species assumed): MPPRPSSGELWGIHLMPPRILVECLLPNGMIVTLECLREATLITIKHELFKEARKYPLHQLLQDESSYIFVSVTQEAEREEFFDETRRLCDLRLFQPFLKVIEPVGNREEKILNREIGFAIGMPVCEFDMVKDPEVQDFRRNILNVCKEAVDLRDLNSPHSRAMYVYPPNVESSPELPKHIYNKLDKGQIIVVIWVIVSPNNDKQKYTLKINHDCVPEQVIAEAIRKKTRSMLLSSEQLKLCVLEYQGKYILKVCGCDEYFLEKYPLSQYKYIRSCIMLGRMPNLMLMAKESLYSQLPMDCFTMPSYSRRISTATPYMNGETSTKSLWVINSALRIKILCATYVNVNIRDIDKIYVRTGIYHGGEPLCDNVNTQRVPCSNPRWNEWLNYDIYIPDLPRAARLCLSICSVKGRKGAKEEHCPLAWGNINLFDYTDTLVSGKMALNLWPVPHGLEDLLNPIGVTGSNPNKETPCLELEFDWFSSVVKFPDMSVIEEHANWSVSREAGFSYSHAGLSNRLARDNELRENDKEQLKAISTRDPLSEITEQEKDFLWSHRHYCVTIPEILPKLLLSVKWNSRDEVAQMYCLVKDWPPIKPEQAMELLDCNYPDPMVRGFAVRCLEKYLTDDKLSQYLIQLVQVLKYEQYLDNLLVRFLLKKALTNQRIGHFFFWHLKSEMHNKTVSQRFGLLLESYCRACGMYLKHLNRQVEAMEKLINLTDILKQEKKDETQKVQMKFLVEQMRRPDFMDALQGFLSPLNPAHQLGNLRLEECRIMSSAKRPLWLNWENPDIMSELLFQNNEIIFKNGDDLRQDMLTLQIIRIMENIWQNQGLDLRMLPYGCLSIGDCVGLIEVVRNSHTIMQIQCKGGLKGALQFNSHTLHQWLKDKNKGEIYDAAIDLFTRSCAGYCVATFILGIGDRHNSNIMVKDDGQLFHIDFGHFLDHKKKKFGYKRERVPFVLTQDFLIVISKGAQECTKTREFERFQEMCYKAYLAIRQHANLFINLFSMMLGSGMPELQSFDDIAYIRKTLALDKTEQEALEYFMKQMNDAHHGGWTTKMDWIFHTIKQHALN
T1 sequence (P27986 whole entry partner, species assumed): as the sequence (P27986 whole entry partner) above

CN(Cc1nc2c(N3CCOCC3)nc(-c3ccncc3)nc2n1C)c1ncc(C(=O)NO)cn1 [CLJ-8, 2-(((2-(4-pyridyl)-9-methyl-6-morpholine-9H-purine-8-yl))methyl(methyl)amino)-N-hydroxyl pyrimidine-5-formamide]
IC50 (PI3Kα; Table 1, graded): 1000 to 10000 nM
IC50 (PI3Kα; Table 4, graded): 1000 to 10000 nM
IC50 [1]: 0.1 to 1 nM
IC50 (PI3Kδ): > 10000 nM
IC50 [2]: 1 to 10 nM
IC50 [3]: 1 to 10 nM
IC50 [4]: 0.1 to 10 nM
IC50 [5]: 10 to 100 nM
IC50 (PI3Kγ [6]): > 10000 nM
IC50 (PI3Kβ): > 10000 nM
IC50 [7]: 1 to 10 nM
Final survival condition (survived individuals/total individuals) [8]: 5/6
EC50 [9]: 100 to 200 nM
IC50 [10]: 0.1 to 1 nM
IC50 [11]: 1 to 10 nM
EC50 [12]: 100 to 200 nM
IC50 [13]: 0.1 to 10 nM
IC50 [14]: 1 to 10 nM

COc1ccc(-c2nc(N3CCOCC3)c3sc(CN(C)c4ncc(C(=O)NO)cn4)cc3n2)cn1 [CUDC-907]
IC50 (PI3Kγ [15]): 39 nM
